The values that follow come from US20250049806A1, “PHARMACEUTICAL COMPOSITION FOR PROVIDING TREATMENT FOR OR PREVENTING ALPORT SYNDROME” (UBE Corporation, priority 2021, published 2025).

The Papp A→B is the apparent permeability from the apical to the basolateral side of a cell layer.

The data set can be described thus: Transcellular transport test using Caco2 cell. The class given is in vitro ADME. The settings on record: human, Caco-2, apical-to-basolateral (A-to-B), pH=7.4, 10 µM compound. The method, then:
Caco2 cells (purchased from ATCC) were cultured in DMEM medium (Thermo Fisher Scientific, Inc., 11965) containing 10% FBS (Thermo Fisher Scientific, Inc., 10082) and 1% penicillin/streptomycin/amphotericin B (Thermo Fisher Scientific, Inc., 15240). A transcellular transport test was carried out in accordance with MultiScreen Caco2 Drug Transport Assembly in a 96-well system (Application Note AN1727EN, MultiScreen Caco-2 Assay System, Merck) by partially modifying it. The Caco2 cells were inoculated at a cell density of 4×10^4 cells/well onto a micropore polycarbonate insert of a 96-well plate (Merck, Millcell-96 culture insert plate 0.4 μm pore size, well membrane area=0.11 cm^2, PSHT004S5) and cultured for 20 to 22 days, and the resulting monolayer was used in the transcellular transport test. The medium of the inoculated cells was replaced with a fresh one every 3 to 4 days.
Apical-to-basolateral (A-to-B) transport in the Caco2 cell monolayer membrane was performed by using HBSS (Thermo Fisher Scientific, Inc., 14025) medium (pH=7.4) containing 20 mM HEPES (Thermo Fisher Scientific, Inc., 15630), and adding HEPES-containing HBSS medium containing 10 µM compound (a 10 mM solution of the compound in DMSO was added at a 1000-fold dilution; final DMSO concentration: 0.1%) at 75 μL/well to the apical side and HEPES-containing HBSS medium supplemented with no compound at 250 μL/well to the basolateral side, followed by culture at 37° C. for 90 minutes. After culture, a 100 μL aliquot was collected from the basolateral side, and the concentration of a permeated compound was measured by LC-MS/MS under measurement conditions mentioned later. Papp (apparent permeability; cm/sec) was calculated from the determined concentration. Papp was determined according to the expression given below by calculating the slope (dA/dt; nmol/sec) of a straight line drawn between two points 0 minutes and zero amount of the compound in a graph plotted with an assay time (90 min) on the abscissa against the amount of the compound in the solution on the permeated side on the ordinate. As for an assay concentration, the concentration in the compound in the HEPES-containing HBSS medium containing the added compound was measured by UV-HPLC under measurement conditions mentioned later.
C0: assay concentration, S: plate membrane area=0.11 cm^2
• LC: LC20 or LC30 HPLC system manufactured by Shimadzu Corp. • Column: Phenomenex Kinetex C18 (50 mm×2.1 mm, 2.6 μm) • Column temperature: 40° C. • Flow rate: 0.3 mL/min • Mobile phase A: 0.1% aqueous formic acid solution • Mobile phase B: 0.1% formic acid, 50% acetonitrile/methanol mixed solution • Gradient: 0-2 min; A/B=90/10 to 10/90, 2-3 min; A/B=10/90, 3-3.01 min; A/B=10/90 to 90/10 • MS: Q-Trap3200 manufactured by AB Sciex Pte. Ltd. • Ionization: ESI • Mode: Positive
• LC: LC20 or LC30 HPLC system manufactured by Shimadzu Corp. • Column: Phenomenex Kinetex C18 (100 mm×2.1 mm, 2.6 μm) • Column temperature: 40° C. • Flow rate: 0.25 mL/min • Mobile phase A: 0.1% aqueous formic acid solution • Mobile phase B: 0.1% formic acid, 50% acetonitrile/methanol mixed solution • Gradient: 0-3 min; A/B=90/10, 3-11 min; A/B=90/10 to 5/95, 11-15 min; A/B=5/95, 15-15.1 min; A/B=5/95 to 90/10 • UV detector: photodiode array detector
A: Papp>1×10^−6 (cm/sec), B: 1×10^−6 (cm/sec)≥Papp>5×10^−7 (cm/sec), C: 5×10^−7 (cm/sec)≥Papp>1×10^−7 (cm/sec), or D: Papp≤1×10^−7 (cm/sec).
Background: Caco-2 cells form a polarised layer with tight junctions and transporters.
The compound `O=C(O)C[C@H](NC(=O)CNC(=O)c1cc(NC2=NCC(F)CN2)cc2[nH]ncc12)c1cccc(C(F)(F)F)c1` (stereo partly drawn) [56-(b), (3S)-3-(2-(6-((5-fluoro-1,4,5,6-tetrahydropyrimidin-2-yl)amino)-1H-indazole-4-carboxamido)acetamido)-3-(3-(trifluoromethyl)phenyl)propanoic acid] returned an apical-to-basolateral permeability (Papp A→B) at 90 min, 10 µM of 0.1 to 0.5 ×10⁻⁶ cm/s. Then `O=C(O)C[C@H](NC(=O)CNC(=O)c1cc(NC2=NCC(F)CN2)c2cn[nH]c2c1)c1cc(Cl)cc(Cl)c1` (stereo partly drawn) [17-(b), (3S)-3-(3,5-dichlorophenyl)-3-(2-(4-((5-fluoro-1,4,5,6-tetrahydropyrimidin-2-yl)amino)-1H-indazole-6-carboxamido)acetamido)propanoic acid], with over 1 ×10⁻⁶ cm/s; and `O=C(O)C[C@H](NC(=O)CNC(=O)c1cc(NC2=NCC(F)CN2)c2cn[nH]c2c1)c1cc(Cl)cc(C(F)(F)F)c1` (stereo partly shown) [1-(b)], with over 1 ×10⁻⁶ cm/s; and `O=C(O)C[C@H](NC(=O)CNC(=O)c1cc(NC2=NCC(F)CN2)c2cn[nH]c2c1)c1cccc(C(F)(F)F)c1` (stereo partly drawn) [35-(b), (3S)-3-(2-(4-((5-fluoro-1,4,5,6-tetrahydropyrimidin-2-yl)amino)-1H-indazole-6-carboxamido)acetamido)-3-(3-(trifluoromethyl)phenyl)propanoic acid], with over 1 ×10⁻⁶ cm/s. Then `O=C(O)C[C@H](NC(=O)CNC(=O)c1cc(NC2=NCC(F)CN2)c2cn[nH]c2c1)c1cc(C(F)(F)F)ccc1F` (stereo partly drawn) [11-(b), (3S)-3-(2-(4-((5-fluoro-1,4,5,6-tetrahydropyrimidin-2-yl)amino)-1H-indazole-6-carboxamido)acetamido)-3-(2-fluoro-5-(trifluoromethyl)phenyl)propanoic acid], with over 1 ×10⁻⁶ cm/s. Regarding `O=C(O)C[C@H](NC(=O)CNC(=O)c1cc(NC2=NCC(F)CN2)c2cn[nH]c2c1)c1ccc(F)c(OC(F)F)c1` (stereo partly drawn) [27-(b), (3S)-3-(3-(difluoromethoxy)-4-fluorophenyl)-3-(2-(4-((5-fluoro-1,4,5,6-tetrahydropyrimidin-2-yl)amino)-1H-indazole-6-carboxamido)acetamido)propanoic acid], the Papp A→B at 90 min, 10 µM was over 1 ×10⁻⁶ cm/s. Then `O=C(O)C[C@H](NC(=O)CNC(=O)c1cc(NC2=NCC(F)CN2)c2cn[nH]c2c1)c1ccc(C(F)(F)F)cc1` (stereo partly drawn) [47-(b), (3S)-3-(2-(4-((5-fluoro-1,4,5,6-tetrahydropyrimidin-2-yl)amino)-1H-indazole-6-carboxamido)acetamido)-3-(4-(trifluoromethyl)phenyl)propanoic acid], with over 1 ×10⁻⁶ cm/s. In the case of `Cc1cc(C)n(-c2cccc([C@H](CC(=O)O)NC(=O)CNC(=O)c3cc(NC4=NCC(F)CN4)c4cn[nH]c4c3)c2)n1` (stereo partly drawn) [44-(b), (3S)-3-(3-(3,5-dimethyl-1H-pyrazol-1-yl)phenyl)-3-(2-(4-((5-fluoro-1,4,5,6-tetrahydropyrimidin-2-yl)amino)-1H-indazole-6-carboxamido)acetamido)propanoic acid], the apparent permeability from apical to basolateral (Papp A→B) at 90 min, 10 µM lay within 0.5 to 1 ×10⁻⁶ cm/s. Take `O=C(O)C[C@H](NC(=O)CNC(=O)c1cc(NC2=NCC(F)CN2)c2cn[nH]c2c1)c1cc(Cl)c(F)c(C(F)(F)F)c1` (stereo partly drawn) [15-(b), (3S)-3-(3-chloro-4-fluoro-5-(trifluoromethyl)phenyl)-3-(2-(4-((5-fluoro-1,4,5,6-tetrahydropyrimidin-2-yl)amino)-1H-indazole-6-carboxamido)acetamido)propanoic acid]: the Papp A→B at 90 min, 10 µM was over 1 ×10⁻⁶ cm/s. `O=C(O)C[C@H](NC(=O)CNC(=O)c1cc(NC2=NCC(F)CN2)c2cn[nH]c2c1)c1cc(Cl)cc(Br)c1` (stereo partly drawn) [18-(b), (3S)-3-(3-bromo-5-chlorophenyl)-3-(2-(4-((5-fluoro-1,4,5,6-tetrahydropyrimidin-2-yl)amino)-1H-indazole-6-carboxamido)acetamido)propanoic acid] gave a Papp A→B at 90 min, 10 µM of over 1 ×10⁻⁶ cm/s.
